{"source": "patent US20260152636A1", "about": "“GELLING SOLUTIONS FOR ADMINISTRATION OF COMPOUNDS TO THE INNER EAR” (Spiral Therapeutics, Inc., priority 2020, published 2026)", "key": {"[1]": {"assay": "Dexamethasone levels in plasma and perilymph after single IT injection in green monkey", "assay_type": "in vivo, African green monkey (Chlorocebus sabaeus)", "conditions": "through Day 22", "method": "Information on absorption, distribution and pharmacokinetics of the PEG-trilysine polymer formulation by otic administration were obtained from a pharmacokinetic (PK) and tolerability study conducted in the African green monkey (Chlorocebus sabaeus)\nThe perilymph and plasma concentrations of the PEG-trilysine polymer formulation were evaluated following a single IT injection. Perilymph and plasma levels of test and control articles were measured after 1, 10 and 22 days. Given the small study size (N=9 enrolled) and number of total ears treated, PK data are presented as descriptive statistics only.\nThe absorption and distribution of dexamethasone was also investigated in African green monkeys."}, "[2]": {"conditions": "guinea pig, in vivo", "procedure": "(§1) An 8-week toxicology study was performed to assess the safety and pharmacokinetics of intratympanic administration of a PEG-trilysine polymer formulation in Hartley guinea pigs. […] Hartley guinea pigs of both sexes [n=46 (23 males and 23 females) were used for the study. Following 3 to 7 days of acclimation, all guinea pigs underwent baseline ABRs tests at 4, 10, and 20 kHz.\n(§2) Perilymph samples were collected at terminus at 3 days, 1 week, 4 weeks, and 8 weeks post administration."}, "MD patients": {"tested_on": "MD patients", "conditions": "cited from earlier work"}, "in vivo": {"assay": "in vivo", "conditions": "both, Hartley, guinea pig, other: intratympanic, 5 μL", "procedure": "as §1, §2"}, "Hartley guinea pigs": {"tested_on": "Hartley guinea pigs", "assay": "8-week safety study, ABR threshold shift after intratympanic injection", "assay_type": "in vivo, guinea pig", "conditions": "IT injection; Days 3 and 14; positive control", "source_text": "Groups 1-3 were further divided into subgroups with varying survival times up to 8 weeks. The number of ears for the 4-week and 8-week timepoints in this study were powered to detect a 20 dB shift from baseline in the ABR threshold measurement at each of the three test frequencies (1-way t-test; independent means; apriori; power=0.95), using sample data to estimate variability from pilot studies. Auditory brainstem responses and blood sampling were collected at specified in-life timepoints, including terminus. Perilymph sampling, middle ear visualization, and histology sample preparation were performed on specified animals at terminus."}}}
{"compound": "C[C@@H]1C[C@H]2[C@@H]3CCC4=CC(=O)C=C[C@]4(C)[C@@]3(F)[C@@H](O)C[C@]2(C)[C@@]1(O)C(=O)CO", "note": "[Dexamethasone, dexamethasone]", "values": [{"measurement": "Plasma levels of dexamethasone over time", "setting": "[1]", "result": "remained within detectable limits through Day 22"}, {"measurement": "Perilymph Mean (ng/mL)", "setting": "[2]", "result": "BLQ"}, {"measurement": "Plasma Mean (ng/mL)", "setting": "[2]", "result": "BLQ"}, {"measurement": "Incidence of TM perforation", "setting": "MD patients; end of Phase 1b study, 3 mg or 12 mg single IT injection", "result": 3, "unit": "%"}, {"measurement": "Safety and tolerability", "setting": "MD patients; single IT injection of 12 mg, formulated with poloxamer 407, unilateral MD", "result": "safe, well-tolerated"}, {"measurement": "concentration at 1 week", "setting": "in vivo; perilymph", "result": 1700, "unit": "ng/mL"}, {"measurement": "concentration at 3 days", "setting": "in vivo; perilymph", "result": 109, "unit": "ng/mL"}, {"measurement": "concentration at 1 week", "setting": "in vivo; plasma", "result": 3.2, "unit": "ng/mL"}, {"measurement": "concentration at 3 days", "setting": "in vivo; plasma", "result": 5.5, "unit": "ng/mL"}]}
{"compound": "gentamicin", "values": [{"measurement": "ABR threshold shift", "setting": "Hartley guinea pigs", "result": "≥ 55", "unit": "dB"}, {"measurement": "Improvement in aural fullness", "setting": "MD patients; IT therapy, one study", "result": 31, "unit": "%"}]}
